Tests used:
[1] = system: P. berghei ANKA sporozoites; test: murine Plasmodium berghei sporozoite challenge model (prophylaxis efficacy); type: in vivo; details: intramuscular, dose-dependent; mice; FIG. 2
Description: Four- to six-day old Anopheles stephensi adult mosquitoes fasted for 6 h were fed on Swiss Webster mice infected with P. berghei (ANKA 2.34 strain). Fed mosquitoes were maintained for 18 d (19° C., 80% relative humidity), when salivary glands were harvested into RPMI medium and disrupted by several passages through a 0.5 in 28-gauge needle to release sporozoites. Parasites were counted by hemocytometer and diluted to 25,000 mL^−1 RPMI. C57BL6 mice were challenged by intravenous infusion of 5,000 sporozoites in 200 μL RPMI.
(§1) All dosing materials were constituted just before use. Mepron suspension (150 mg/mL atovaquone) was the starting material. Pluronic F-68 (10%) was used to dilute Mepron to required dosing concentration (≤100 mg/mL), or as vehicle control. For the washed drug preparation, atovaquone was pelleted from diluted Mepron (50 mg/mL, 13,000×g, 10 min) and the supernatant was replaced with equal volume 0.9% NaCl. Washing was repeated three times prior to final resuspension of excipient-depleted atovaquone at 50 mg/mL in 0.9% NaCl for dosing. C57BL6 male mice (˜20 g; 3-5 per group) were injected intramuscularly (biceps femoris; 23-gauge needle, 100 μl Hamilton syringe) with diluted or washed Mepron (40 μl total volume, 20 μl per limb). Oral Mepron was administered by gavage. […]

in vivo = test: in vivo; parameters: species or system mice; details: male, C57BL6, mouse, im, 200 mg/kg
Description: as §1, with “gavage. At predetermined post-dose intervals, animals were challenged with P. berghei ANKA by infusion of 5,000 sporozoites into a tail vein. Starting 4 d post-challenge then weekly thereafter for 42 d, tail snip blood samples were examined for parasites via Giemsa-stained thin smears. Each experiment included an untreated cohort to validate the challenge. Efficacy outcomes were binary. The appearance of parasitemia in any animal in a cohort was designated a dosing failure.” for “gavage.”

[2] = cited from earlier work

half-life (in vivo): 182 h
Structure (SMILES): O=C1C(O)=C([C@H]2CC[C@H](c3ccc(Cl)cc3)CC2)C(=O)c2ccccc21 [atovaquone]
successful malaria prophylaxis (parasite-free), days post-challenge [1]: up to 42 days
solubility in water [2]: practically insoluble

Reference: patent US20200155481A1, “INTRAMUSCULAR ATOVAQUONE FOR MALARIA PROPHYLAXIS” (THE JOHNS HOPKINS UNIVERSITY, priority 2017, published 2020)
